{"source": "patent US20160318866A1", "about": "“SUBSTITUTED BIPIPERIDINYL DERIVATIVES” (Bayer Pharma Aktiengesellschaft, priority 2013, published 2016)", "note": "Counter-ions that a name gives are not always drawn."}
{"target": "T1, human α2C receptor (Homo sapiens, UniProt P18825)", "T1 construct": "expressed in transfected cells; host or cells: CHO cells, also recombinantly expressing chimeric G protein Gαqi3 and mitochondrial obelin (mtOb)", "T1 sequence (P18825 1-462)": "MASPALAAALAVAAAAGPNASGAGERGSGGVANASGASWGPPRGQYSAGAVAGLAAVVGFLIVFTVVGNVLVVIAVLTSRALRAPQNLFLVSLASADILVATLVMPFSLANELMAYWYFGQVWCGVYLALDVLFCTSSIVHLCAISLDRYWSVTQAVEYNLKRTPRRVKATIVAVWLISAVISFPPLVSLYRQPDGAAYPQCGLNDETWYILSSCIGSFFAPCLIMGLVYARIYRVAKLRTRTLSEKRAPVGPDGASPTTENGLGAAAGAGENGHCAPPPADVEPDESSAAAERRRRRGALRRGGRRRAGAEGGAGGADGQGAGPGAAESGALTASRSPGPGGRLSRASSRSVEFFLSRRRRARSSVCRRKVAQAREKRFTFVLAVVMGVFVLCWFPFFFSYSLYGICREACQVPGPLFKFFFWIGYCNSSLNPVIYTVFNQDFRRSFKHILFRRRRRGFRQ", "assay": "Antagonism against the adrenoreceptor α2C (luminescence, recombinant CHO cell line)", "type": "cell-based", "details": "antagonism against adrenoreceptor α2C; noradrenaline 20 nM; tested up to 10 μM; read-out: IC50", "protocol": "Antagonism against the adrenoreceptor α1A was tested using a recombinant human α1A receptor CHO cell line which additionally also recombinantly expresses mtAeq (mitochondrial aequorin). Antagonism against the adrenoreceptor α2A was tested using a recombinant human α2A-Gα16 receptor fusion protein CHO cell line (PerkinElmer Life Sciences) which additionally also recombinantly expresses mtAeq. Antagonism against the adrenoreceptor α2B was tested using a recombinant human α2B receptor CHO cell line (PerkinElmer Life Sciences) which additionally also recombinantly expresses mtAeq. Antagonism against the adrenoreceptor α2C was tested using a recombinant human α2C receptor CHO cell line which additionally also recombinantly expresses a chimaric G protein (Gαqi3) and mtOb (mitochondrial obelin).\nThe cells were cultivated at 37° C. and 5% CO2 in Dulbecco's modified Eagle's Medium/NUT mix F12 with L-glutamine which additionally contains 10% (v/v) inactivated foetal calf serum, 1 mM sodium pyruvate, 0.9 mM sodium bicarbonate, 50 U/ml penicillin, 50 μg/ml streptomycin, 2.5 μg/ml amphotericin B and 1 mg/ml Geneticin. The cells were passaged with enzyme-free Hank's-based cell dissociation buffer. All cell culture reagents used are from Invitrogen (Carlsbad, USA).\nLuminescence measurements were carried out on white 384-well microtitre plates. 2000 cells/well were plated in a volume of 25 μl and cultivated for one day at 30° C. and 5% CO2 in cell culture medium with coelenterazine (α2A and α2B: 5 μg/ml; α1a/c and α2C: 2.5 μg/ml). Serial dilutions of the test substances (10 μl) were added to the cells. After 5 minutes, noradrenalinee was added to the cells (35 μl; final concentrations: 20 nM (α1a/c and α2C) or 200 nM (α2A and α2B)), and the emitted light was measured for 50 seconds using a CCD (charge-coupled device) camera (Hamamatsu Corporation, Shizuoka, Japan) in a light-tight box. The test substances were tested up to a maximum concentration of 10 μM. The IC50 values were calculated from the appropriate dose-response curves.", "units": {"IC50": "nM"}}
{"compound": "CC(C)(O)c1ccc(C(=O)N2CCC(N3CCCC(COC4CCC4)C3)CC2)cc1", "note": "(racemic) [Example 116, {3-[(Cyclobutyloxy)methyl]-1,4′-bipiperidin-1′-yl}[4-(2-hydroxypropan-2-yl)phenyl]methanone (racemate)]", "IC50": 7}
{"compound": "C[C@@H]1CN(C2CCN(C(=O)c3ccc(C(C)(C)C)cc3)CC2)CC[C@@H]1C", "note": "(relative stereo) [Example 20, cis-1-[1-(4-tert-Butylbenzoyl)piperidin-4-yl]-3,4-dimethylpiperidine trifluoroacetic acid salt]", "IC50": 117}
{"compound": "CC1CCCN(C2CCN(C(=O)c3ccc(C(C)(C)C)cc3)CC2)C1", "note": "(single isomer, unassigned) [Example 6, (4-tert-Butylphenyl)(3-methyl-1,4′-bipiperidin-1′-yl)methanone, (−)-enantiomer]", "IC50": 91}
{"compound": "CCC1CCCN(C2CCN(C(=O)c3ccc(C(C)(C)O)cc3)CC2)C1", "note": "(single isomer, unassigned; enantiomer 1) [Example 115, [3-Ethyl-1,4′-bipiperidin-1′-yl][4-(2-hydroxypropan-2-yl)phenyl]methanone (enantiomer 1)]", "IC50": 22}
{"compound": "CC(C)(O)c1ccc(C(=O)N2CCC(N3CCCC(OCC4CC4)C3)CC2)cc1", "note": "(single isomer, unassigned; enantiomer 1) [Example 129, [3-(Cyclopropylmethoxy)-1,4′-bipiperidin-1′-yl][4-(2-hydroxypropan-2-yl)phenyl]methanone hydrochloride (enantiomer 1)]", "IC50": 16}
{"compound": "CC(C)(O)c1ccc(C(=O)N2CCC(N3CCCC(COC4CCC4)C3)CC2)cc1", "note": "(single isomer, unassigned; enantiomer 2) [Example 117, {3-[(Cyclobutyloxy)methyl]-1,4′-bipiperidin-1′-yl}[4-(2-hydroxypropan-2-yl)phenyl]methanone (enantiomer 2)]", "IC50": 5}
{"compound": "CCOC[C@@H]1CCCN(C2CCN(C(=O)c3ccc(C(C)(C)O)cc3)CC2)C1", "note": "(single isomer, unassigned; enantiomer 2) [Example 121, [3-(Ethoxymethyl)-1,4′-bipiperidin-1′-yl][4-(2-hydroxypropan-2-yl)phenyl]methanone (enantiomer 2)]", "IC50": 5}
{"compound": "COCC1CCCN(C2CCN(C(=O)c3ccc(C(C)(C)O)cc3)CC2)C1", "note": "(single isomer, unassigned; enantiomer 2) [Example 123]", "IC50": 7}
{"compound": "CCOC(=O)C1CCCN(C2CCN(C(=O)c3ccc(C(C)(C)C)cc3)CC2)C1", "note": "(centres unmarked) [Example 1, Ethyl 1′-[(4-tert-butylphenyl)carbonyl]-1,4′-bipiperidine-3-carboxylate]", "IC50": 38}
{"compound": "CCOC(=O)c1ccc(C(=O)N2CCC(N3CCCC(C(=O)OCC)C3)CC2)cc1", "note": "(centres unmarked) [Example 2, 3-(Ethoxycarbonyl)-1-{1-[4-(ethoxycarbonyl)benzoyl]piperidin-4-yl}piperidine trifluoroacetic acid salt]", "IC50": 120}
{"compound": "CC1CCCN(C2CCN(C(=O)c3ccc(C(C)(C)C)c(Cl)c3)CC2)C1", "note": "(centres unmarked) [Example 3, (3-Chloro-4-tert-butylphenyl)(3-methyl-1,4′-bipiperidin-1′-yl)methanone trifluoroacetic acid salt]", "IC50": 268}
{"compound": "CC1CCCN(C2CCN(C(=O)c3ccc(C(C)C)cc3)CC2)C1", "note": "(centres unmarked) [Example 4, (4-Isopropylphenyl)(3-methyl-1,4′-bipiperidin-1′-yl)methanone]", "IC50": 294}
{"compound": "CC1CCCN(C2CCN(C(=O)c3ccc(C(C)(C)C)cc3)CC2)C1", "note": "(centres unmarked) [Example 5, (4-tert-Butylphenyl)(3-methyl-1,4′-bipiperidin-1′-yl)methanone]", "IC50": 99}
{"compound": "CC1CCCN(C2CCN(C(=O)c3ccc(C(C)(C)O)cc3)CC2)C1", "note": "(centres unmarked) [Example 7]", "IC50": 538}
{"compound": "CCOC(=O)C1CCCN(C2CCN(C(=O)c3ccc(C(C)(C)O)cc3)CC2)C1", "note": "(centres unmarked) [Example 9, Ethyl 1′-[4-(2-hydroxypropan-2-yl)benzoyl]-1,4′-bipiperidine-3-carboxylate]", "IC50": 44}
{"compound": "COc1ccccc1OCc1ccc(C(=O)N2CCC(N3CCCC(C)C3)CC2)cc1", "note": "(centres unmarked) [Example 10, {4-[(2-Methoxyphenoxy)methyl]phenyl}[3-methyl-1,4′-bipiperidin-1′-yl]methanone]", "IC50": 96}
{"compound": "Cc1cc(C)n(Cc2ccc(C(=O)N3CCC(N4CCCC(C)C4)CC3)cc2)n1", "note": "(centres unmarked) [Example 11, {4-[(3,5-Dimethyl-1H-pyrazol-1-yl)methyl]phenyl}(3-methyl-1,4′-bipiperidin-1′-yl)methanone]", "IC50": 167}
{"compound": "CC1CCCN(C2CCN(C(=O)c3ccc(C(C)(C)C)cc3O)CC2)C1", "note": "(centres unmarked) [Example 12, (2-Hydroxy-4-tert-butylphenyl)(3-methyl-1,4′-bipiperidin-1′-yl)methanone]", "IC50": 87}
{"compound": "CCOCc1ccc(C(=O)N2CCC(N3CCCC(C)C3)CC2)cc1", "note": "(centres unmarked) [Example 13, [4-(Ethoxymethyl)phenyl](3-methyl-1,4′-bipiperidin-1′-yl)methanone]", "IC50": 267}
{"compound": "CC1CCCN(C2CCN(C(=O)c3ccc(COc4ccccc4)cc3)CC2)C1", "note": "(centres unmarked) [Example 14, [4-(Phenoxymethyl)phenyl](3-methyl-1,4′-bipiperidin-1′-yl)methanone]", "IC50": 115}
{"compound": "COc1cc(C(C)(C)C)ccc1C(=O)N1CCC(N2CCCC(C)C2)CC1", "note": "(centres unmarked) [Example 15, (4-tert-Butyl-2-methoxyphenyl)(3-methyl-1,4′-bipiperidin-1′-yl)methanone]", "IC50": 98}
{"compound": "CC(C)(C)c1ccc(C(=O)N2CCC(N3CCCC(OC(=O)NC4CC4)C3)CC2)cc1", "note": "(centres unmarked) [Example 16, 1′-(4-tert-Butylbenzoyl)-1,4′-bipiperidin-3-yl cyclopropylcarbamate]", "IC50": 380}
{"compound": "CC1=C(C)CN(C2CCN(C(=O)c3ccc(C(C)(C)C)cc3)CC2)CC1", "note": "[Example 17, 1-[1-(4-tert-Butylbenzoyl)piperidin-4-yl]-4,5-dimethyl-1,2,3,6-tetrahydropyridine]", "IC50": 34}
{"compound": "Cc1nnc(C2CCCN(C3CCN(C(=O)c4ccc(C(C)(C)C)cc4)CC3)C2)o1", "note": "(centres unmarked) [Example 18, (4-tert-Butylphenyl) [3-(5-methyl-1,3,4-oxadiazol-2-yl)-1,4′-bipiperidin-1′-yl]methanone]", "IC50": 129}
{"compound": "COCC1CCCN(C2CCN(C(=O)c3ccc(C(C)(C)C)cc3)CC2)C1", "note": "(centres unmarked) [Example 19, (4-tert-Butylphenyl)[3-(methoxymethyl)-1,4′-bipiperidin-1′-yl]methanone]", "IC50": 8}
{"compound": "Cc1n[nH]c(C2CCCN(C3CCN(C(=O)c4ccc(C(C)(C)C)cc4)CC3)C2)n1", "note": "(centres unmarked) [Example 21, 1-[1-(4-tert-Butylbenzoyl)piperidin-4-yl]-3-(3-methyl-1H-1,2,4-triazol-5-yl)piperidine trifluoroacetic acid salt]", "IC50": 49}
{"compound": "COC(=O)c1ccc(C(=O)N2CCC(N3CCCC(C)C3)CC2)cc1", "note": "(centres unmarked) [Example 22, Methyl 4-[(3-methyl-1,4′-bipiperidin-1′-yl)carbonyl]benzoate]", "IC50": 940}
{"compound": "CC1CCCN(C2CCN(C(=O)c3ccc(CC4(C)COC4)cc3)CC2)C1", "note": "(centres unmarked) [Example 23, (3-Methyl-1,4′-bipiperidin-1′-yl){4-[(3-methyloxetan-3-yl)methyl]phenyl}methanone]", "IC50": 136}
{"compound": "CCOC(=O)C1CCCN(C2CCN(C(=O)c3ccc(CC4(C)COC4)cc3)CC2)C1", "note": "(centres unmarked) [Example 24, Ethyl 1′-{4-[(3-methyloxetan-3-yl)methyl]benzoyl}-1,4′-bipiperidine-3-carboxylate]", "IC50": 17}
{"compound": "CC1CCCN(C2CCN(C(=O)c3ccc(C4(C)COC4)cc3)CC2)C1", "note": "(centres unmarked) [Example 25, (3-Methyl-1,4′-bipiperidin-1′-yl) [4-(3-methyloxetan-3-yl)phenyl]methanone]", "IC50": 101}
{"compound": "CCOC(=O)C1CCCN(C2CCN(C(=O)c3ccc(C4(C)COC4)cc3)CC2)C1", "note": "(centres unmarked) [Example 26, Ethyl 1′-[4-(3-methyloxetan-3-yl)benzoyl]-1,4′-bipiperidine-3-carboxylate]", "IC50": 12}
{"compound": "CCOC(=O)C(C)(C)c1ccc(C(=O)N2CCC(N3CCCC(C)C3)CC2)cc1", "note": "(centres unmarked) [Example 27, 1-{1-[4-(1-Ethoxy-2-methyl-1-oxopropan-2-yl)benzoyl]piperidin-4-yl}-3-methylpiperidine trifluoroacetic acid salt]", "IC50": 162}
